Activity calls are given as the source filed them. The calls are words filed in the database; no cut-off is given here.
Assays:
[1] = tested on: Synechocystis sp.; assay: Inhibition of Synechocystis sp. recombinant diguanylate cyclase Slr1143 expressed in Escherichia coli DH5alpha at 100 uM after 2 mins
[2] = Inhibition of Synechocystis sp. recombinant diguanylate cyclase Slr1143 expressed in Escherichia coli DH5alpha after 2 mins

Q: With O=c1ccn([C@H]2O[C@@H]3COP(=O)(O)O[C@@H]4[C@H](O)[C@@H](n5ccc(=O)[nH]c5=O)O[C@H]4COP(=O)(O)O[C@H]3[C@H]2O)c(=O)[nH]1 as the compound, how does the inhibition [1] read?
A: Its inhibition is “Active”.

Q: Which inhibition [1] does the source give for O=P1(O)OC[C@H]2O[C@H](n3cnc4c(O)ncnc43)[C@H](O)[C@@H]2OP(=O)(O)OC[C@@H]2O[C@H](n3cnc4c(O)ncnc43)[C@@H](O)[C@H]2O1 here?
A: The inhibition was 60%.

Q: What about the IC50 [2] of the same compound?
A: The IC50 was 68.9 µM.
